Assay results reported in patent US9878007B2, “Syndecan peptides and polypeptides as inhibitors of vascular endothelial growth factor receptor-2 (VEGFR2) and very late antigen-4 (VLA-4)” (Wisconsin Alumni Research Foundation, priority 2015, dated 2018).
No end group written: not given here.

Key:
VEGFR2 = target: T1, VEGFR2 (Homo sapiens, UniProt P35968); experiment: GST pull down assay: capture of VEGFR2 by GST-S1ED; assay type: binding; settings: HPSE^low cell lysates; peptide 30 M [sic]
T1 construct: endogenous in cells; host or cells: CAG human myeloma cells (HPSE^low = empty vector; HPSE^high = human HPSE cDNA)
Description: FIGS. 6A-G. Peptides derived from the active site in Sdc1 activate or inhibit adhesion and invasion. (FIG. 6A) Transwell migration assays towards FN (for 16 hrs) were performed for HPSE low or high cells in the presence of 0, 0.3, 3, and 30 μM of S1ED^210-240. Cells migrating to the bottom side of the filter were counted from five random images for each treatment. (FIG. 6B) The sequence of S1ED210-240 is shown (SEQ ID NO: 3), as well as […] truncation mutants of the peptide (SEQ ID NOs: 5, 2, 4 and 7). Amino acids shown in red appear necessary for the spreading and invasive activity. (FIG. 6C) Images of HPSE^low and HPSE^high cells plated on FN for 2 hr. (FIG. 6D) HPSE^low cells were treated with 0, 0.3, 3, 10 and 30 μM of S1ED^210-236, S1ED^210-233, or S1ED^214-240, plated on FN for 2 hr, fixed and stained with fluorescent phalloidin. Cells from five random images were quantified for cell attachment and cell spreading. (FIG. 6E) HPSE^high cells were treated with 0, 3, 10, and 30 μM of S1ED^210-236, S1ED^210-233, and S1ED^214-240, plated on FN for 2 hr, then fixed, imaged and quantified as in FIG. 6D. (FIG. 6F) Transwell migration assays towards FN (for 16 hr) were performed for HPSE^low or HPSE^high cells in the presence of 30 μM of S1ED^210-236, S1ED^210-233, S1ED^214-240 and Vandetanib. (FIG. 6G) HPSE^low cell lysates were incubated overnight with glutathione beads coated with GST or GST-S1ED in the absence or presence of 30 μM of S1ED^210-236, S1ED^210-233, and S1ED^214-240. Capture of VLA-4 or VEGFR2 was detected by immunoblotting. Sequences in FIG. 6B are 210-240 (SEQ ID NO: 3), 210-236 (SEQ ID NO: 2), 210-233 (SEQ ID NO: 4), 214-240 (SEQ ID NO: 5) and 214-236 (SEQ ID NO: 7).
CAG cells were washed with CMF-PBS and then lysed for 20 min on ice in lysis buffer. Cell debris was removed by centrifugation at 13000 rpm for 20 min at 4° C. Whole cell lysates were then incubated at 4° C. overnight with either 3 μM GST or 3 μM GST-S1ED in the absence or presence of 1 μM, 3 μM, and 10 μM S1ED^210-240 peptide. GST or GST-S1ED was captured by addition of glutathione Sepharose and the beads were washed with ice-cold lysis buffer and CMF-PBS, prior to addition of SDS-PAGE sample buffer and analyszed by electrophoresis and western blotting as described previously.

HMEC-1 cells [1] = experiment: Transwell migration / invasion assay of HMEC-1 cells; assay type: cell-based; settings: 16 hr
Description: FIGS. 8A-H. HPSE mediated the Sdc1-coupled VEGFR2 complex in endothelial cells induces angiogenesis. (FIG. 8A) Lysates from HPSE^low, HPSE^high and HMEC-1 cells are probed by immunoblotting for expression of HPSE. (FIG. 8B) HMEC-1 cells were seeded at equal density and grown in serum-free media for 24 hr in the absence or presence of 125 μg/ml of the HPSE inhibitor SST0001. After 24 hr, conditioned media were harvested, and the level of shed Sdc1 in the conditioned medium from each condition was determined by immunoblotting. (FIG. 8C) HMEC-1 cell lysate was incubated overnight with glutathione beads coated with GST or GST-S1ED. Capture of VLA-4 or VEGFR2 was detected by immunoblotting. (FIG. 8D) HMEC-1 cells were plated on IIICS for 3 hr and double stained for VLA-4 and Sdc1, VEGFR2 and Sdc1, or VLA-4 and VEGFR2. (FIG. 8E) HMEC-1 cells were treated with DMSO, VLA-4 blocking antibody P1H4, β1-integrin blocking antibody mAb13, 10 μg/ml MMP9 blocking antibody, 125 μg/ml HPSE inhibitor SST0001, Vandetanib, VEGFR2 blocking antibody, 30 μM S1ED^210-233 or 30 μM S1ED^214-240 and then plated on IIICS. Images were taken from random field with 200× magnification for counting attached and spread cells. (FIG. 8F) HMEC-1 cells were plated on IIICS in the presence of 10 μM of S1ED^210-236, S1ED^210-233, S1ED^215-240, and S1ED^214-240. Lysates were probed on immunoblots with antibodies against pY^1175 VEGFR2 and VEGFR2. (FIG. 8G) Transwell migration assays towards IIICS (for 16 hr) were performed for HMEC-1 cells in the presence of P1H4, SST0001, Anti-MMP9, Vandetanib, S1ED^210-236, S1ED^210-233, and S1ED^214-240. Images were taken from random field with 200× magnification for counting migrated cells. (FIG. 8H) A 96-well plate coated with 50 μl Matrigel containing 100 μg/ml IIICS per well was solidified at 37° C. for 2 hrs. […]
The bottom chambers of Transwell filter chambers (8 μm pores; Corning) were coated with 40 μg/ml of FN. […] Cells from at least five random fields were counted.

HMEC-1 cells [2] = experiment: In vitro tube formation assay of HMEC-1 cells on Matrigel; assay type: cell-based; settings: 24 hrs, 10 μM peptides
Description: FIGS. 8A-H. HPSE mediated the Sdc1-coupled VEGFR2 complex in endothelial cells induces angiogenesis. (FIG. 8A) Lysates from HPSE^low, HPSE^high and HMEC-1 cells are probed by immunoblotting for expression of HPSE. (FIG. 8B) HMEC-1 cells were seeded at equal density and grown in serum-free media for 24 hr in the absence or presence of 125 μg/ml of the HPSE inhibitor SST0001. After 24 hr, conditioned media were harvested, and the level of shed Sdc1 in the conditioned medium from each condition was determined by immunoblotting. (FIG. 8C) HMEC-1 cell lysate was incubated overnight with glutathione beads coated with GST or GST-S1ED. Capture of VLA-4 or VEGFR2 was detected by immunoblotting. (FIG. 8D) HMEC-1 cells were plated on IIICS for 3 hr and double stained for VLA-4 and Sdc1, VEGFR2 and Sdc1, or VLA-4 and VEGFR2. (FIG. 8E) HMEC-1 cells were treated with DMSO, VLA-4 blocking antibody P1H4, β1-integrin blocking antibody mAb13, 10 μg/ml MMP9 blocking antibody, 125 μg/ml HPSE inhibitor SST0001, Vandetanib, VEGFR2 blocking antibody, 30 μM S1ED^210-233 or 30 μM S1ED^214-240 and then plated on IIICS. Images were taken from random field with 200× magnification for counting attached and spread cells. (FIG. 8F) HMEC-1 cells were plated on IIICS in the presence of 10 μM of S1ED^210-236, S1ED^210-233, S1ED^215-240, and S1ED^214-240. Lysates were probed on immunoblots with antibodies against pY^1175 VEGFR2 and VEGFR2. (FIG. 8G) Transwell migration assays towards IIICS (for 16 hr) were performed for HMEC-1 cells in the presence of P1H4, SST0001, Anti-MMP9, Vandetanib, S1ED^210-236, S1ED^210-233, and S1ED^214-240. Images were taken from random field with 200× magnification for counting migrated cells. (FIG. 8H) A 96-well plate coated with 50 μl Matrigel containing 100 μg/ml IIICS per well was solidified at 37° C. for 2 hrs. HMEC-1 cells (2.5×10^4 cells/well) were seeded into the plate and cultured in media containing VEGF, SST0001, 10 μM of S1ED^210-236, S1ED^210-233, S1ED^215-240, and S1ED^214-240 for 24 hrs. Enclosed capillary networks of tubes were taken from random field with 200× magnification.

T1 sequence (P35968 20-1356): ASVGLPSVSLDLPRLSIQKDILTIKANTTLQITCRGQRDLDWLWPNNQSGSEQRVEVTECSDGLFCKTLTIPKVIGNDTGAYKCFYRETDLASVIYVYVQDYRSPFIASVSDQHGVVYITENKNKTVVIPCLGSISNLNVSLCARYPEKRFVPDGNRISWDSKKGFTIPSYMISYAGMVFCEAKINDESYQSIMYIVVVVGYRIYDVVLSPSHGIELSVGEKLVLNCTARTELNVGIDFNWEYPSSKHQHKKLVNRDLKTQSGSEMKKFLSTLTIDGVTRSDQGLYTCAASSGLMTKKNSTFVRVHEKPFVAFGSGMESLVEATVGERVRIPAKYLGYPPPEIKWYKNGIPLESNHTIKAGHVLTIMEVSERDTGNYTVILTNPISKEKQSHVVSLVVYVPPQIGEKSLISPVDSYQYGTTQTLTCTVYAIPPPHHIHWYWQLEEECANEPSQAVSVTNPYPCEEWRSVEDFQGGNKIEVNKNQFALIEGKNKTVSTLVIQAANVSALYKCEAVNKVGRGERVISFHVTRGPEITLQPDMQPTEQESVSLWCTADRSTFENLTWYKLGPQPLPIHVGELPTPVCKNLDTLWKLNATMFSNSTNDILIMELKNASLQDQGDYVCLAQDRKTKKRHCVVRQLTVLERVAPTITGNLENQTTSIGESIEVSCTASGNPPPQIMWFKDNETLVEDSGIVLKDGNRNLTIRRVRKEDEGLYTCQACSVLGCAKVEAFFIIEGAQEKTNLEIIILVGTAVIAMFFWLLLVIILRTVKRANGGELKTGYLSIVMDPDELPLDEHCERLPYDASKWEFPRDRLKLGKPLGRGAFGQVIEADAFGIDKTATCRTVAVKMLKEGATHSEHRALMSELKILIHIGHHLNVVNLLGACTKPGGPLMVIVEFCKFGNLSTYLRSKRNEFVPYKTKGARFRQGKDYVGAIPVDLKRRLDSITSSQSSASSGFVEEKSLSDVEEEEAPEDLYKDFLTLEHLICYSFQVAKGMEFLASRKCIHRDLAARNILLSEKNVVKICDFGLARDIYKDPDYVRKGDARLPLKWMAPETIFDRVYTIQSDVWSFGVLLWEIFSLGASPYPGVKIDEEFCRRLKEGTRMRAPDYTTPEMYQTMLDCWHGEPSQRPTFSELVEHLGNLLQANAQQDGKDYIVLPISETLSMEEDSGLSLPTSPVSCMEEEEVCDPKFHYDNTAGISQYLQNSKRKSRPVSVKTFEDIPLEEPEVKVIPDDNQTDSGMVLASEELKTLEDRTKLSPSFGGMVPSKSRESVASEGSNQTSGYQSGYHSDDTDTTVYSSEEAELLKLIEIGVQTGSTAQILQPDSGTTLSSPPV

| Substance | competition for capture of VEGFR2 by GST-S1ED (VEGFR2) | invasion of HMEC-1 cells (HMEC-1 cells [1]) | tube formation by HMEC-1 cells (HMEC-1 cells [2]) |
| --- | --- | --- | --- |
| DFTFETSGENTAVVAVEPDRRNQSPVD [S1ED^210-236] | effectively blocks capture of both receptors | all block invasion | blocks tube formation |
| S1ED^210-233: syndecan-1 ectodomain peptide, residues 210-233 (SEQ ID NO: 4) (DFTFETSGENTAVVAVEPDRRNQS) | competes for capture of VEGFR2 | all block invasion | blocks tube formation |
